Broadly, the viability is a read-out of living cells in per cent, often relative to untreated cells.

The first data set can be described thus: in vitro. The settings on record: human, hela cells, % viability.
As for `CC1=C[C@@H](CNC(=O)c2ccncc2)[C@H](C(C)C)C[C@H]1CC(=O)N1CCOCC1` [CBK289052], the viability at 28.5 h, 10 µM worked out at 80.2%.

Regarding `Cc1noc(C)c1NC(=O)c1cn(C)c2ccccc12` [CBK200312], the viability at 28.5 h, 10 µM was determined as 87.3%.

Regarding `COc1ccc(Br)c(C(=O)Nc2[nH]nc(O)c2Cc2c(Cl)cccc2Cl)c1` [CBK084554], the viability at 28.5 h, 10 µM was 111%.

In the case of `Cc1ccc(S(=O)(=O)Nc2ccc(Nc3cc(-c4cccc([N+](=O)[O-])c4)ncn3)cc2)cc1` [CBK090983], the viability at 28.5 h, 10 µM stood at 109%.

`CCCc1[nH]nc(O)c1Cc1ccc(Cl)cc1` [CBK075013]: the viability at 28.5 h, 10 µM is 90%.

With `COCCn1c(CN2Cc3ccc(Cl)cc3C2=O)nnc1[C@H]1C[C@@H](N)C1` [CBK307289], the viability at 28.5 h, 10 µM stood at 102%.

Turning to `CC(C)(CO)Cn1c(=O)[nH]c2ncc(-c3ccc(F)c(Cl)c3)nc21` [CBK064737], the viability at 28.5 h, 10 µM stood at 102%.

As to `O=C(NCC1COc2ccccc2O1)N1CCN(c2ccc(F)cc2)CC1` (stereo not drawn) [CBK156387], the viability at 28.5 h, 10 µM turned out to be 92.8%.

As to `COc1ccc(Cl)cc1N1CCN(Cc2ccc(C(C)C)cc2)CC1` [CBK126407], the viability at 28.5 h, 10 µM came to 97.6%.

As for `COc1ccc(C(=O)N2CC[C@@H]3NC(=O)[C@H]4C[C@H](NC(=O)C5CCC5)CN4C(=O)[C@H]32)cc1` [CBK289268], the viability at 28.5 h, 10 µM is 111%.

With `Cc1nn(CC(=O)OC2CCCCC2)c(=O)c2cc3sccc3n12` [CBK284045], the viability at 28.5 h, 10 µM was found to be 80.8%.

For `CC(C)CC12CN3CCN(CC(C3)/C1=N\N=C1/C3CN4CCN(C3)CC1(CC(C)C)C4)C2` [CBK265036], the viability at 28.5 h, 10 µM was 99.1%.

Turning to `O=C1CSC(c2cccc(Cl)c2Cl)N1C1CCCCC1` (stereo not drawn) [CBK020678], the viability at 28.5 h, 10 µM was 96.7%.

With `CCOc1cc(CNc2nc[nH]n2)cc(Cl)c1OCc1ccccc1F` [CBK288088], the viability at 28.5 h, 10 µM was 103%.

Take `Cc1ccc(C2(CN3CCC(NC(=O)C4CC4)CC3)CC2)cc1` [CBK285359]: the viability at 28.5 h, 10 µM was found to be 83.9%.

With `Cc1cc(Cl)ccc1OCC(O)CN1CCN(Cc2ccc3c(c2)OCO3)CC1` (stereo not drawn) [CBK074383], the viability at 28.5 h, 10 µM was determined as 92.3%.

For the compound `CN(C)c1cccc(C2CCCN2c2nc3c(cnn3C)c(=O)[nH]2)c1` (stereo not drawn) [CBK305220], the viability at 28.5 h, 10 µM was 78.6%.

`CCc1ccc(CN(C)C(=O)COC(=O)c2cc(-c3ccccc3)nc3onc(C)c23)cc1` [CBK295334]: the viability at 28.5 h, 10 µM was determined as 89.5%.

Take `Cc1cc(C)c(NC(=O)CSc2nnc(Cc3ccccc3)n2C)c(C)c1` [CBK265990]: the viability at 28.5 h, 10 µM was determined as 110%.

For `O=C(c1ccoc1)N1CCC2(CCCN(Cc3ccc(OC(F)(F)F)cc3)C2)C1` (stereo not drawn) [CBK132801], the viability at 28.5 h, 10 µM amounted to 114%.

Regarding `CCOC(=O)c1c(NC(=O)Cn2nc([N+](=O)[O-])c(Cl)c2C)sc2c1CCC(C)C2` (stereo not drawn) [CBK263054], the viability at 28.5 h, 10 µM worked out at 94.2%.

As to `COc1ccc(NC(=O)C2CCCCC2C(=O)O)c(C)c1` (stereo not drawn) [CBK270301], the viability at 28.5 h, 10 µM worked out at 83.9%.

For `C=CCNC(=O)CCn1c(C(C)C)cc2cccnc21` [CBK283289], the viability at 28.5 h, 10 µM stood at 105%.

Turning to `Cc1cc(OCCCC(=O)Nc2cccc([N+](=O)[O-])c2)cc(C)c1Cl` [CBK267978], the viability at 28.5 h, 10 µM amounted to 97.8%.

For `Brc1ccc(OCCCCCCN2CCCCC2)cc1` [CBK261784], the viability at 28.5 h, 10 µM is 97%.

Regarding `CC(c1ccccc1)N1Cc2cccc(C(=O)O)c2C1=O` (stereo not drawn) [CBK291252], the viability at 28.5 h, 10 µM stood at 97.6%.

As for `Nc1ncc(-c2ccoc2)nc1-c1ccc(C(=O)N2CCOCC2)cc1` [CBK064076], the viability at 28.5 h, 10 µM is 101%.

Take `CCOC(=O)c1c(-n2cnnn2)sc(C)c1C` [CBK027660]: the viability at 28.5 h, 10 µM came out at 93.6%.

With `C=CCNC(=O)[C@H]1C=CCN1C(=O)Nc1ccccc1Cl` [CBK282348], the viability at 28.5 h, 10 µM came out at 99%.

Turning to `Cc1nc2ccccc2c(C)c1C(=O)OCc1nc(N)nc(N(C)C)n1` [CBK295627], the viability at 28.5 h, 10 µM is 70.6%.

`Cn1c(N2CC[C@H](O)C2)nc2cc(C(=O)NC3CCCC3)ccc21` [CBK306779]: the viability at 28.5 h, 10 µM worked out at 97.6%.

Turning to `COc1ccc2c(-c3cc(N)sn3)c(C)oc2c1` [CBK022260], the viability at 28.5 h, 10 µM is 83.8%.

`COc1ccc(S(=O)(=O)N(C)CC(=O)Nc2ccc(Br)cc2F)cc1Cl` [CBK267916]: the viability at 28.5 h, 10 µM was 81.3%.

With `Cc1ccc(S(=O)(=O)NCC(=O)Nc2ccc3cc(Br)cnc3n2)cc1` [CBK067429], the viability at 28.5 h, 10 µM worked out at 95.6%.

Regarding `CCCN(CCC)C(=O)Cn1cnc2ccc(Cl)cc2c1=O` [CBK304651], the viability at 28.5 h, 10 µM came out at 78.2%.

Regarding `CCOC(=O)c1ccc(-c2ccc(/C=N/N=C3\NC(=O)C(CC(=O)O)S3)o2)cc1` (stereo not drawn) [CBK264474], the viability at 28.5 h, 10 µM is 108%.

For `O=C(NCCSCc1ccco1)C1CCC1` [CBK057516], the viability at 28.5 h, 10 µM amounted to 119%.

For `O=C1CCC(=O)N1CC(O)Cn1c2ccc(Cl)cc2c2cc(Cl)ccc21` (stereo not drawn) [CBK262222], the viability at 28.5 h, 10 µM is 90.5%.

Take `Nc1nc(Cc2ccc(F)cc2)no1` [CBK028717]: the viability at 28.5 h, 10 µM came to 110%.

For the compound `CCOc1ccc(S(=O)(=O)N2CCC(C(=O)NCCO)CC2)cc1` [CBK269817], the viability at 28.5 h, 10 µM came to 88.6%.

For `N#Cc1ccc(CN2C(=O)c3ccccc3C2=O)cc1` [CBK029022], the viability at 28.5 h, 10 µM amounted to 100%.

As for `Cc1nc(SCC(=O)c2cc(Cl)ccc2Cl)c2ccccc2n1` [CBK297543], the viability at 28.5 h, 10 µM came to 100%.

Regarding `COc1ccccc1CCC(=O)N1CCCc2c(cnn2C)C1` [CBK284847], the viability at 28.5 h, 10 µM came to 80%.

On to `N#C/C(=C\c1c[nH]nc1-c1ccccc1)c1nc(-c2cccc([N+](=O)[O-])c2)cs1` [CBK267252], for which the viability at 28.5 h, 10 µM was found to be 96.8%.

As for `COc1cccc(NC(=O)N2CC[C@H]3CC(=O)N(c4ccccc4)CC[C@H]3C2)c1` [CBK288787], the viability at 28.5 h, 10 µM amounted to 95.4%.

In the case of `Cc1ncc2c(n1)CCCC2NC(=O)c1ccccc1Cn1cncn1` (stereo not drawn) [CBK306381], the viability at 28.5 h, 10 µM worked out at 100%.

Regarding `CC(=O)c1ccc(-c2cnc(N)c(N3CCC[C@@H]3CO)n2)s1` [CBK063438], the viability at 28.5 h, 10 µM was found to be 97.9%.

As for `CN1CCN(C2c3ccccc3Oc3ccccc32)CC1` [CBK066891], the viability at 28.5 h, 10 µM was found to be 93%.

With `Cc1cc(Cl)ccc1CNC(=O)c1ccc(-c2ccoc2)nc1` [CBK156254], the viability at 28.5 h, 10 µM was found to be 101%.

As for `CCn1c2ccccc2c2cc(NC(=O)CSc3nnc(-c4ccoc4C)o3)ccc21` [CBK269010], the viability at 28.5 h, 10 µM came out at 105%.

Regarding `OC(Cn1c(Cc2ccccc2)nc2ccccc21)Cn1c2ccc(Cl)cc2c2cc(Cl)ccc21` (stereo not drawn) [CBK262546], the viability at 28.5 h, 10 µM is 89.4%.

In the case of `COc1ccc2[nH]cc(CC(=O)Nc3cc(C)nc4ccccc34)c2c1` [CBK122732], the viability at 28.5 h, 10 µM turned out to be 88.8%.

For the compound `CCCc1nnc2sc(C3CCCN(C(C)C)C3)nn12` (stereo not drawn) [CBK306781], the viability at 28.5 h, 10 µM came out at 85.3%.

For `CCN(CC)CCN1C(=O)C(O)=C(C(=O)c2ccc(C)o2)C1c1ccccn1` (stereo not drawn) [CBK266584], the viability at 28.5 h, 10 µM was determined as 109%.

For `COc1cc(-c2nc(N)cc3cccnc23)cc(OC)c1OC` [CBK061892], the viability at 28.5 h, 10 µM turned out to be 101%.

Regarding `O=C(CSCc1ccc([N+](=O)[O-])cc1)Nc1ccc2c(c1)OCO2` [CBK264031], the viability at 28.5 h, 10 µM was 95.7%.

Turning to `CC(=O)Nc1ccc(-c2ccc(COC3CCN(C(=O)c4ccc(F)cc4F)CC3)cc2)cc1` [CBK149216], the viability at 28.5 h, 10 µM amounted to 101%.

As to `CCc1nnc2sc(-c3ccc(C)c(NC(=O)c4ccc(N5CCCCC5)c([N+](=O)[O-])c4)c3)nn12` [CBK268476], the viability at 28.5 h, 10 µM was determined as 91.5%.

As to `COc1cc(OC)cc(C(=O)N2CCC3(CC2)CC(=O)c2cc(C)c(C)cc2O3)c1` [CBK164201], the viability at 28.5 h, 10 µM was 83.3%.

As to `Cc1cc(C)nc(Nc2n[nH]c(-c3ccc(N)cc3)n2)n1` [CBK267131], the viability at 28.5 h, 10 µM was found to be 99.5%.

Consider `CNC(=O)c1sc2ccccc2c1C1CN(Cc2cn(C)c3cc(OC)ccc23)CCO1` (stereo not drawn) [CBK286087], for which the viability at 28.5 h, 10 µM was 91.9%.

As for `O=C(Cc1ccc(Cl)cc1Cl)Nc1ccc2ncccc2c1` [CBK159787], the viability at 28.5 h, 10 µM was 91.5%.

Take `COc1ccccc1CNCc1ccccn1` [CBK262261]: the viability at 28.5 h, 10 µM worked out at 89.4%.

Regarding `Cc1nc2c(C(=O)NCCOCCO)cnn2c(C)c1Cc1cccc(OC(F)(F)F)c1` [CBK167454], the viability at 28.5 h, 10 µM worked out at 114%.

Turning to `Cn1c(SCc2cccc3ccccc23)nnc1-c1ccc(NC(=O)/C=C/c2ccccc2)cc1` [CBK265034], the viability at 28.5 h, 10 µM was 114%.

As to `O=S(=O)(N[C@H]1CO[C@H]2[C@@H]1OC[C@H]2O)c1ccc(Cl)cc1` [CBK289478], the viability at 28.5 h, 10 µM stood at 87.7%.

As to `Cc1nc2ccc(C(=O)N(C)CCN(C)C)cn2c1N(C)Cc1cccs1` [CBK146083], the viability at 28.5 h, 10 µM amounted to 102%.

On to `O=C(NCc1ccccn1)c1nn[nH]c1Nc1cccc(Cl)c1` [CBK288030], for which the viability at 28.5 h, 10 µM came out at 79.4%.

With `CN1CCN(C(=O)c2ccsc2NS(=O)(=O)c2ccc(Oc3ccccc3)cc2)CC1` [CBK042277], the viability at 28.5 h, 10 µM stood at 87%.

In the case of `COc1cccc(C(=O)N2Cc3ccccc3CC2C(=O)O)c1` (stereo not drawn) [CBK287150], the viability at 28.5 h, 10 µM stood at 102%.

In the case of `O=C(COc1ccccc1Cl)NC(=S)Nc1cccc(C(=O)O)c1` [CBK265662], the viability at 28.5 h, 10 µM came to 91.4%.

`Cc1ccc(S(=O)(=O)Nc2nc(C)c(C(=O)O)s2)cc1[N+](=O)[O-]` [CBK045565]: the viability at 28.5 h, 10 µM came to 91.3%.

As for `O=S(=O)(Nc1nc(-c2ccccc2Cl)cs1)c1sc(Cl)cc1Br` [CBK200028], the viability at 28.5 h, 10 µM turned out to be 103%.

Regarding `Cc1cc(S(=O)(=O)N2CCN(CCO)C(C)C2)sc1Cl` (stereo not drawn) [CBK304074], the viability at 28.5 h, 10 µM was determined as 91.4%.

`Cn1c2c(c(=O)n(C)c1=O)[C@H]1[C@H](O)[C@H](O)C[C@H]1[C@@H](C(O)c1ccccc1)N2` (stereo partly drawn) [CBK303236]: the viability at 28.5 h, 10 µM was 92.8%.

As to `O=C(Nc1ccc(Cl)cc1)Nc1cccc(C(=O)O)c1` [CBK269404], the viability at 28.5 h, 10 µM worked out at 98.7%.

The data set is the same for the next values; noted with them: human, hela cells, % viability, bulk resorufin, single well.
With `Cc1cc(/C=C2\C(=O)NC(=O)N(c3cccc(F)c3)C2=O)c(C)n1-c1cc(C(=O)O)cc(C(=O)O)c1` [CBK264041], the viability at 28.5 h, 10 µM is 97.3%.

Take `Cc1cc2cc(NC(=O)CCC3C(=O)NC(=O)NC3=O)cc(Cl)c2o1` [CBK285826]: the viability at 28.5 h, 10 µM turned out to be 93%.

For the origin of these results see publication PMC12040169 (PLOS Biology, 2025).
